# Reference: PMC6266505, “Limonoids Containing a C1–O–C29 Moiety: Isolation, Structural Modification, and Antiviral Activity” (Marine Drugs, 2018)
# Where two headings read alike, the source gives them in different places.
# Assays:
# HIV-1 [1] = assay: microbe, parasite or virus in culture
# in vitro = conditions: human
# HIV-1 [2] = conditions: read-out: IC50 against HIV-1; cited from earlier work
# [3] = cited from earlier work
# IAV = assay: Anti-IAV bioassay; type: cell-based; conditions: Influenza A virus, read-out: Inhibition Rate (%) against IAV, positive control
# influenza A virus (IAV) = conditions: cited from earlier work
compound,measurement,setting,value
"C/C=C(\C)C(=O)O[C@@H]1[C@@H]2C=C3[C@@H]4CC(=O)O[C@@H](c5ccoc5)[C@]4(C)CC[C@@H]3[C@]3(C)[C@@H](CC(=O)OC)[C@]1(C)CO[C@]23O [Compound 6, granatumin L]",IC50,"HIV-1 [1]; Human immunodeficiency virus 1, SUP-T1, read-out: IC50 Value (μM) against HIV-1",19.23 ± 0.12 µM
same,inhibition at 20 µM,"HIV-1 [1]; Human immunodeficiency virus 1, SUP-T1, read-out: Inhibition Rate (20.0 μM) (%) against HIV-1",67.1 ± 3.04%
same,CC50,in vitro,> 100 µM
CC[C@H](C)C(=O)O[C@@H]1C(=O)[C@@]2(OC(=O)C(C)C)[C@@]3(O)C[C@@]1(C)[C@H](CC(=O)OC)[C@@]3(C)[C@H]1CC[C@@]3(C)[C@H](c4ccoc4)OC(=O)C[C@]34O[C@]142 [Krishnolide A],IC50,HIV-1 [2],17.4 ± 1.65 µM
same,CC50,[3],78.5 ± 1.69 µM
NC(=O)c1ncn([C@@H]2O[C@H](CO)[C@@H](O)[C@H]2O)n1 [ribavirin],inhibition at 60 µM,IAV,87.5 ± 2.86%
COC(=O)C[C@@H]1[C@@]2(C)[C@H]3CC[C@]4(C)C(=C3[C@@]3(O)[C@@H](OC(C)=O)C(=O)[C@]1(C)C[C@@]23O)CC(=O)O[C@H]4c1ccoc1 [thaixylomolin I],"antiviral activity against influenza A virus (IAV), in words",influenza A virus (IAV),moderate antiviral activity
same,IC50,influenza A virus (IAV); read-out: IC50 against IAV,77.1 ± 8.7 µM
COC(=O)C[C@H]1[C@@]2(C)C[C@]3(O)[C@H](C(=O)[C@H]2OC(C)=O)C2=C4CC(=O)O[C@@H](c5ccoc5)[C@]4(C)CC[C@@H]2[C@]13C [thaixylomolin K],"antiviral activity against influenza A virus (IAV), in words",influenza A virus (IAV),moderate antiviral activity
COC(=O)C[C@H]1[C@@]2(C)C[C@]3(O)[C@H](C(=O)[C@H]2OC(C)=O)C2=C(CC[C@]4(C)C2=CC(=O)O[C@H]4c2ccoc2)[C@]13C [thaixylomolin M],"antiviral activity against influenza A virus (IAV), in words",influenza A virus (IAV),moderate antiviral activity
